Converted amounts (≈) assume the structure as drawn.
Assays:
Assay type in all cases: cell-based
[1] = system: Entercoccus faecalis 2041; assay: MIC, standard broth micro-dilution assay
Protocol: (§1) The formula I compounds have in vitro and in vivo activity against Gram-positive pathogenic bacteria. The MIC's were determined using a standard broth micro-dilution assay.

Entercoccus faecalis 276 = assay: MIC, standard broth micro-dilution assay
Protocol: as §1

[2] = system: Entercoccus gallinarum 245; assay: MIC, standard broth micro-dilution assay
Protocol: as §1

[3] = system: vancomycin-resistant enterococci (Enterococcus faecium and Enterococcus faecalis); assay: mean geometric MIC, broth micro-dilution; conditions: 24-hour incubation
[4] = system: vancomycin-susceptibie enterococci (Enterococcus faecium and Enterococcus faecalis); assay: mean geometric MIC, broth micro-dilution; conditions: 24-hour incubation
[5] = system: Streptococcus pyogenes C203; assay: MIC, standard broth micro-dilution assay
Protocol: The MIC's were determined using a standard broth micro-dilution assay.

Pedicoccus acidilacti = assay: MIC, agar dilution on brain-heart infusion agar; conditions: Pedioccccus acidilacti (mean of 10)
Pediococcus pentosaceus = assay: MIC, agar dilution on brain-heart infusion agar; conditions: Pediococcus pentosaceus (mean of 2)
Leuconostoc lactis = assay: MIC, agar dilution on brain-heart infusion agar; conditions: Leuconostoc lactis (mean of 2)
[6] = system: Leuconostoc mesenteroides; assay: MIC, agar dilution on brain-heart infusion agar; conditions: Leuconostoc mesenteroides (mean of 4)
[7] = system: Leuconostoc pseudomesenteroides; assay: MIC, agar dilution on brain-heart infusion agar
Leuconostoc citreum = assay: MIC, agar dilution on brain-heart infusion agar
Lactobacillus confusus = assay: MIC, agar dilution on brain-heart infusion agar

Row | Structure (SMILES) | MIC [1] [µg/mL] | MIC (Entercoccus faecalis 276) [µg/mL] | MIC [2] [µg/mL] | mean geometric MIC, Vancomycin Resistant Strains [3] [µg/mL] | mean geometric MIC, Vancomycin Sensitive Strains [4] [µg/mL] | MIC [5] [µg/mL] | MIC (Pedicoccus acidilacti) [µg/mL] | MIC (Pediococcus pentosaceus) [µg/mL] | MIC (Leuconostoc lactis) [µg/mL] | MIC [6] [µg/mL] | MIC [7] [µg/mL] | MIC (Leuconostoc citreum) [µg/mL] | MIC (Lactobacillus confusus) [µg/mL]
1 | CNC(CC(C)C)C(=O)NC1C(=O)NC(CC(N)=O)C(=O)NC2C(=O)NC3C(=O)NC(C(=O)NC(C(=O)O)c4cc(O)cc(O)c4-c4cc3ccc4O)C(OC3CC(C)(N)C(O)C(C)O3)c3ccc(c(Cl)c3)Oc3cc2cc(c3OC2OC(CO)C(O)C(O)C2OC2CC(C)(NCc3cccc(Oc4cccc(C(F)(F)F)c4)c3)C(O)C(C)O2)Oc2ccc(cc2Cl)C1O (centres unmarked) [Compound 111] | ≤ 0.06 | 0.5 (≈ 0.271 µM) | 4 (≈ 2.17 µM) | 0.84 | 0.054 | – | – | – | – | – | – | – | –
2 | CNC(CC(C)C)C(=O)NC1C(=O)NC(CC(N)=O)C(=O)NC2C(=O)NC3C(=O)NC(C(=O)NC(C(=O)O)c4cc(O)cc(O)c4-c4cc3ccc4O)C(OC3CC(C)(N)C(O)C(C)O3)c3ccc(c(Cl)c3)Oc3cc2cc(c3OC2OC(CO)C(O)C(O)C2OC2CC(C)(NCc3ccc(OC4CCCCC4)cc3)C(O)C(C)O2)Oc2ccc(cc2Cl)C1O (centres unmarked) [Compound 124, 4-cyclohexyloxybenzyl] | ≤ 0.06 | ≤ 0.06 | 1 (≈ 0.562 µM) | – | – | – | 20 (≈ 11.2 µM) | 16 (≈ 8.99 µM) | 16 (≈ 8.99 µM) | 16 (≈ 8.99 µM) | 64 (≈ 35.9 µM) | 64 (≈ 35.9 µM) | 16 (≈ 8.99 µM)
3 | CNC(CC(C)C)C(=O)NC1C(=O)NC(CC(N)=O)C(=O)NC2C(=O)NC3C(=O)NC(C(=O)NC(C(=O)O)c4cc(O)cc(O)c4-c4cc3ccc4O)C(OC3CC(C)(N)C(O)C(C)O3)c3ccc(c(Cl)c3)Oc3cc2cc(c3OC2OC(CO)C(O)C(O)C2OC2CC(C)(NCc3ccc(C=Cc4ccccc4)cc3)C(O)C(C)O2)Oc2ccc(cc2Cl)C1O (centres unmarked) [Compound 29, 4-stilbenzyl] | 0.25 (≈ 0.14 µM) | 0.25 (≈ 0.14 µM) | 0.25 (≈ 0.14 µM) | – | – | – | 4.0 (≈ 2.24 µM) | 8.0 (≈ 4.48 µM) | 5.7 (≈ 3.19 µM) | 6.7 (≈ 3.75 µM) | 16 (≈ 8.97 µM) | 32 (≈ 17.9 µM) | 8 (≈ 4.48 µM)

Continued, values first:

Row | MIC [1] [µg/mL] | MIC (Entercoccus faecalis 276) [µg/mL] | MIC [2] [µg/mL] | mean geometric MIC, Vancomycin Resistant Strains [3] [µg/mL] | mean geometric MIC, Vancomycin Sensitive Strains [4] [µg/mL] | MIC [5] [µg/mL] | MIC (Pedicoccus acidilacti) [µg/mL] | MIC (Pediococcus pentosaceus) [µg/mL] | MIC (Leuconostoc lactis) [µg/mL] | MIC [6] [µg/mL] | MIC [7] [µg/mL] | MIC (Leuconostoc citreum) [µg/mL] | MIC (Lactobacillus confusus) [µg/mL] | Structure (SMILES)
4 | – | 18 (≈ 9.64 µM) | 8 (≈ 4.29 µM) | – | – | 0.5 (≈ 0.268 µM) | – | – | – | – | – | – | – | CCCCCCCCCCCCOc1ccc(CNC2(C)CC(OC3C(Oc4c5cc6cc4Oc4ccc(cc4Cl)C(OC4CC(C)(N)C(O)C(C)O4)C4NC(=O)C(NC(=O)C6NC(=O)C(CC(N)=O)NC(=O)C(NC(=O)C(CC(C)C)NC)C(O)c6ccc(c(Cl)c6)O5)c5ccc(O)c(c5)-c5c(O)cc(O)cc5C(C(=O)O)NC4=O)OC(CO)C(O)C3O)OC(C)C2O)cc1 (centres unmarked) [Compound 10, 4-dodecyloxybenzyl]
5 | ≤ 0.06 | ≤ 0.06 | ≤ 0.06 | – | – | – | 2.8 (≈ 1.57 µM) | 8.0 (≈ 4.47 µM) | 8.0 (≈ 4.47 µM) | 8 (≈ 4.47 µM) | 16 (≈ 8.95 µM) | 64 (≈ 35.8 µM) | 16 (≈ 8.95 µM) | CNC(CC(C)C)C(=O)NC1C(=O)NC(CC(N)=O)C(=O)NC2C(=O)NC3C(=O)NC(C(=O)NC(C(=O)O)c4cc(O)cc(O)c4-c4cc3ccc4O)C(OC3CC(C)(N)C(O)C(C)O3)c3ccc(c(Cl)c3)Oc3cc2cc(c3OC2OC(CO)C(O)C(O)C2OC2CC(C)(NCc3ccc(OCc4ccccc4)cc3)C(O)C(C)O2)Oc2ccc(cc2Cl)C1O (centres unmarked) [Compound 5, 4-benzyloxybenzyl]

Reference: US5843889A, “Glycopeptide antibiotic derivatives” (Eli Lilly and Company, priority 1997, dated 1998)
